The text below walks through data of ChEMBL document CHEMBL5725682, “Therapeutic inhibitory compounds” (2018).

One experiment addresses Plasma kallikrein (Homo sapiens, UniProt P03952). The experiment is described as follows: In Vitro Enzyme Inhibition of hPK: A 10 mM solution of the test compound was made in DMSO. […] A control tube containing only DMSO is included. […] 50 μL was removed from this mixture and placed into duplicate wells on a Microfluor 1Black U-bottom microtiter plate (Thermo Scientific). This plate was incubated for 5 minutes at 37° C. To each well, 50 μL of pre-warmed 2×PFR-AMC was added to start the enzymatic reaction. Cleavage of PFR-AMC was monitored in a Biotek Synergy H4 reader set at 37° C. Readings are taken every 43 seconds for 1 hour. […] The IC50 is calculated using the Gen5 (Biotek Instruments).

Experiment [1] in a line: In Vitro Contact Cellular Assay: The test compounds at various concentrations, also prepared by serial dilutions as described above, are added to the test wells. The volume of test compound added to each test well was 12.5 μL, to yield final concentrations of 20 μM, 5 μM, 1.25 μM, 312.5 nM, 78.125 nM, 19.531 nM, 4.883 nM, 1.221 nM, 0.305 nM, and 0.076 nM. Each test compound concentration was tested in duplicates.In addition to the inhibitor control and test wells, the 96 well assay plate includes positive control wells which contained the mixture of human plasma and ellagic acid without C1NH inhibitor or test compounds, and background wells which contained neither the mixture of human plasma and ellagic acid nor the test compounds. The total volume of liquid in positive control and background wells was brought up to 35 μL, using the assay buffer.The assay plate containing C1NH inhibitors and test compounds mixed with human plasma and ellagic acid and appropriate controls was incubated at 37° C. for 5 min. A 10 mM stock solution of substrate Z-FR-2-AMC was diluted to 133.2 μM in the assay buffer, and 15 μL of the diluted substrate was added to each well, to yield a final substrate concentration of 40 μM in each well. The reagents were mixed well by shaking the plate gently for 30 sec.The enzyme reaction was quantified by immediate kinetic reading of the assay plate using excitation/emission wavelengths of 330 nm/440 nm respectively. Fluorescence intensity was recorded for 60 min, using a time interval of 43 sec.The inhibition activity of the test compounds were evaluated using the EC50 values, calculated according to the dose-response curve of the test compounds, fitted using the log(inhibitor)−response (variable slope)¿ equation in GraphPadPrism software (GraphPad Software, Inc.).

Plasma kallikrein, sequence (P03952 20-390 limits assumed): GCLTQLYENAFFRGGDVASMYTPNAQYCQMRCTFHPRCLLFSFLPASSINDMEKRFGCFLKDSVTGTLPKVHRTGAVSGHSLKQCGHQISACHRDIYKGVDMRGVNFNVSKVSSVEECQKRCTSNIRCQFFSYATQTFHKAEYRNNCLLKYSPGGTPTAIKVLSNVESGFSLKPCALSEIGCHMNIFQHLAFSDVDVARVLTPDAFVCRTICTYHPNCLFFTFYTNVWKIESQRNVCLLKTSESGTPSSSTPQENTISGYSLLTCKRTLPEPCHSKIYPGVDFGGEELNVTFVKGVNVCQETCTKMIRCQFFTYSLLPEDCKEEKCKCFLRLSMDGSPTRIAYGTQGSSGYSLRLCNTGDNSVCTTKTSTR
Plasma kallikrein, sequence (P03952 391-638 limits assumed): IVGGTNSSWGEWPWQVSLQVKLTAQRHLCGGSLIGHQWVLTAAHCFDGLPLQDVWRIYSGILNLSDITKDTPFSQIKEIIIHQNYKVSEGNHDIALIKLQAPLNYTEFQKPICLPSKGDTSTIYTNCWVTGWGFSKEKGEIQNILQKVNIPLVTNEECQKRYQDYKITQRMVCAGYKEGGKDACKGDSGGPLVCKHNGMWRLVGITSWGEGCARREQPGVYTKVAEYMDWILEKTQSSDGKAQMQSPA

A word on the IC50: it is the concentration that inhibits the measured activity by half. Broadly, the EC50 is the concentration giving half of the maximal effect. As to `Cc1nc(N)ccc1CNC(=O)c1ccnc(Cc2ccc3ncc(C4CC4)cc3c2)c1`, the IC50 at Plasma kallikrein was under 100 nM. For the same compound, in experiment [1], the EC50 is under 100 nM.
Take `Cc1nc2c(cc1CNC(=O)c1ccnc(Cc3ccc4ncc(Cl)cc4c3)c1)CNC2`: on Plasma kallikrein, the IC50 was over 10000 nM.
Consider `Cc1cc(C(=O)NCc2c(C)cc(N)nc2C)cc(Cc2ccc3ncc(Cl)cc3c2)n1`, for which the 50% effective concentration (EC50) in experiment [1] is under 100 nM.
With `Cc1cc(N)nc(C)c1CNC(=O)c1cc(Cc2ccc3ncc(Cl)cc3c2)nc(C(N)=O)c1`, the EC50 entry in experiment [1] was “in the range around 550 nM”.
With `Cc1cc(N)nc(C)c1CNC(=O)c1ccnc(Cc2cccc(-c3noc(=O)[nH]3)c2)c1`, the IC50 at Plasma kallikrein was over 10000 nM.
For the compound `Nc1nccc2cc(CNC(=O)c3ccnc(Cc4ccc5ncc(N6CCCC6)cc5c4)c3)ccc12`, the 50% inhibitory concentration (IC50) at Plasma kallikrein is under 100 nM.
As to `Cc1cc(N)nc(C)c1CNC(=O)c1ccnc(Cc2ccc3ncc(CC(F)F)cc3c2)c1`, the 50% inhibitory concentration (IC50) on Plasma kallikrein is under 100 nM. In experiment [1], the EC50 is under 100 nM.
For the compound `Nc1nccc2cc(CNC(=O)c3ccnc(Cc4ccc5ncc(Cl)cc5c4)c3)ccc12`, the EC50 in experiment [1] was under 100 nM.
